# Laboratory results taken from patent publication US4080449A, “1,2,4,5-Tetrahydro-3H-2-benzazepin-3-ones” (U C B, Societe Anonyme, priority 1976, dated 1978).
# Several values for one entry are separate records, joined by “and”; a condition that tells them apart may be missing. Equal values may be shown once.
# Key:
# [1] = pharmacological properties of the compounds according to the present invention (Table III footnote, test not specified); assay type: in vivo
# spinal fixation time [2] = assay: spinal fixation test (elementary model of memory) after unilateral cerebellar lesion; assay type: in vivo; conditions: rat, i.p., 0.1 mmole/kg (A 17.5, B 22, C 23.7 mg/kg); spinal section 35 minutes after onset of asymmetry
# Description: Action on the mnemic processes is shown particularly by the reduction in the time for spinal fixation, a test which has been described in the literature (see C. Giurgea and F. Mouravieff-Lesuisse, Arch. Int. Pharmacodyn, 191/2, (1971), 279) as an elementary model of memory which is endowed with a pharmacological reactivity in good correlation with clinical physiopathology. In the rat, after unilateral lesion of the cerebellum, there is a postural asymmetry of the hind paws. This asymmetry may persist, even after spinal section, if the animal has been in this situation for a sufficiently long time. This time, which is called the spinal fixation time, is 45 minutes under the experimental conditions. On the other hand, if spinal section is performed before the expiry of this period, for example 35 minutes after the onset of the asymmetry, the latter disappears. […] Conversely, any product which allows the rats to retain the asymmetry (thus achieving spinal fixation) when the spinal section is carried out after 35 minutes, is regarded as being active.
# Under these conditions, administration of a compound according to the present invention, for example 2-methyl-1,2,4,5-tetrahydro-3H-2-benzazepin-3-one (compound A), 2-carbamoylmethyl-1,2,4,5-tetrahydro-3H-2-benzazepin-3-one (compound B) and 5-phenyl-1,2,4,5-tetrahydro-3H-2-benzazepin-3-one (compound C) produces the following effects: […]
# [3] = system: withdrawal reaction of a rat's paw; assay: active avoidance test (memory retention, paw pressure withdrawal); assay type: in vivo; conditions: for Stimulus initiating the avoidance reaction 24 hours after the first stimulation: s.c.; for minimal effective dose: sc, minimum dose which lowers the stimulus to below 110 g
# Description: The principle of the active avoidance test, which has been developed in our laboratories and used for this purpose, may be described as follows: the withdrawal reaction of a rat's paw subjected to an increasing and measured pressure is observed. The pressure at which the withdrawal reaction is produced is called the reaction threshold. The latter is expressed in grams and thus corresponds to the minimum pressure which, when applied to the paw of the animals, causes withdrawal. It is read off directly from a scale of the apparatus used. […] Use is made of a minimum of 20 rats per test (10 treated rats and 10 control rats), the active dose being defined as the minimum dose which lowers the stimulus to below 110 g.
# [4] = system: lethality induced by a curarizing agent, oxydipentonium chloride (Brevatonal); assay: Brevatonal test (protection against lethality induced by oxydipentonium chloride, hypoxia); assay type: in vivo; conditions: mice, i.p.
# Method: At the doses used, this curarizing agent brings about a respiratory depression which, in turn, brings about a hypoxi-hypercapnic syndrome. A compound capable of protecting the brain during this short period of hypoxia ensures survival. The compounds are administered to groups of 10 mice one hour before the injection of the curarizing agent; concurrently herewith, a control group of 10 mice is given a physiological salt solution prior to the curarizing agent. For each compound, the proportion of surviving mice is compared with the proportion of surviving control mice by the "Fisher exact probability test". This test, called the Brevatonal test, has also been developed in our laboratories.
# Intraperitoneal administration (i.p.) of compounds according to the present invention, namely, 2-methyl-1,2,4,5-tetrahydro-3H-2-benzazepin-3-one (compound A), 2,4-dimethyl-1,2,4,5-tetrahydro-3H-2-benzazepin-3-one (compound G), 2-isobutyl-4-methyl-1,2,4,5-tetrahydro-3H-2-benzazepin-3-one(compound H), 7-chloro-2-methyl-1,2,4,5-tetrahydro-3H-2-benzazepin-3-one (compound J) 8-chloro-2-methyl-1,2,4,5-tetrahydro-3H-2-benzazepin-3-one (compound K) and 8-methyl-2-pentyl-1,2,4,5-tetrahydro-3H-2-benzazepin-3-one (compound L), produces under these conditions the effects set out in the following Table II.
# [5] = LD50 determined intraperitoneally in the rat (Spearman-Karber); conditions: in vivo, ip, intraperitoneal
# Method: The LD50 doses were determined intraperitoneally in the rat and calculated by using the method of Spearman-Karber (D. J. Finney, Statistical Methods in Biological Assay, pub. Griffin & Co., London, 1952, p. 524).
# spinal fixation time [6] = conditions: rat, 30 mg/kg (0.2 millimole/kg), same conditions; C. Giurgea and F. Mouravieff-Lesuisse, loc.cit.; cited from earlier work
# [7] = 0.175 mg/kg, control (0 mg/kg) A 164, F 154
# [8] = 2 mg/kg (0.01 mmole/kg), control G 1/10, H 2/10
compound,measurement,setting,value
"O=C1CCc2ccccc2CN1 [1,2,4,5-tetrahydro-3H-2-benzazepin-3-one]",pharmacological properties of the compounds according to the present invention,[1],does not have th
"CN1Cc2ccccc2CCC1=O [A, 2-methyl-1,2,4,5-tetrahydro-3H-2-benzazepin-3-one]",spinal fixation after 35 minutes (animals with fixation),spinal fixation time [2],three animals out of five
same,Stimulus initiating the avoidance reaction 24 hours after the first stimulation,"[3]; 0.09 mg/kg, control (0 mg/kg) 164",146 g
same,Stimulus initiating the avoidance reaction 24 hours after the first stimulation,[3]; [7],106 g
same,minimal effective dose,[3],0.175 mg/kg and 1 µmol/kg
same,Fisher exact probability,[4]; 55 mg/kg (0.32 mmole/kg),< 0.005
same,"Proportion of survivors, treated animals","[4]; 55 mg/kg (0.32 mmole/kg), control 0/10",7/10
same,LD50,[5],760 mg/kg
"NC(=O)CN1Cc2ccccc2CCC1=O [B, 2-carbamoylmethyl-1,2,4,5-tetrahydro-3H-2-benzazepin-3-one]",spinal fixation after 35 minutes (animals with fixation),spinal fixation time [2],two animals out of four
"O=C1CC(c2ccccc2)c2ccccc2CN1 (stereo not shown) [C, 5-phenyl-1,2,4,5-tetrahydro-3H-2-benzazepin-3-one]",spinal fixation after 35 minutes (animals with fixation),spinal fixation time [2],four animals out of five
"COc1ccc2c(c1)CCC(=O)N(C)C2 [D, 7-methoxy-2-methyl-1,2,4,5-tetrahydro-3H-2-benzazepin-3-one]",Stimulus initiating the avoidance reaction 24 hours after the first stimulation,"[3]; 0.205 mg/kg, control (0 mg/kg) 165",118 g
same,Stimulus initiating the avoidance reaction 24 hours after the first stimulation,"[3]; 1 mg/kg, control (0 mg/kg) 165",90 g
same,minimal effective dose,[3],1 mg/kg and 5 µmol/kg
"CCCCCN1Cc2ccccc2CC(C)C1=O (stereo not shown) [E, 4-methyl-2-pentyl-1,2,4,5-tetrahydro-3H-2-benzazepin-3-one]",Stimulus initiating the avoidance reaction 24 hours after the first stimulation,"[3]; 0.24 mg/kg, control (0 mg/kg) 166",122 g
same,Stimulus initiating the avoidance reaction 24 hours after the first stimulation,"[3]; 0.49 mg/kg, control (0 mg/kg) 166",89 g
same,minimal effective dose,[3],0.49 mg/kg and 2 µmol/kg
"Cc1ccc2c(c1)CNC(=O)CC2 [F, 8-methyl-1,2,4,5-tetrahydro-3H-2-benzazepin-3-one]",Stimulus initiating the avoidance reaction 24 hours after the first stimulation,[3]; [7],121 g
same,Stimulus initiating the avoidance reaction 24 hours after the first stimulation,"[3]; 0.35 mg/kg, control (0 mg/kg) 154",111 g
same,Stimulus initiating the avoidance reaction 24 hours after the first stimulation,"[3]; 0.87 mg/kg, control (0 mg/kg) 154",101 g
same,minimal effective dose,[3],0.87 mg/kg and 5 µmol/kg
"CC1Cc2ccccc2CN(C)C1=O (stereo not shown) [G, 2,4-dimethyl-1,2,4,5-tetrahydro-3H-2-benzazepin-3-one]",Fisher exact probability,[4]; 2 mg/kg (0.01 mmole/kg),< 0.05
same,"Proportion of survivors, treated animals",[4]; [8],6/10
"CC(C)CN1Cc2ccccc2CC(C)C1=O (stereo not shown) [H, 2-isobutyl-4-methyl-1,2,4,5-tetrahydro-3H-2-benzazepin-3-one]",Fisher exact probability,[4]; 2 mg/kg (0.01 mmole/kg),< 0.005
same,"Proportion of survivors, treated animals",[4]; [8],9/10
same,Fisher exact probability,[4]; 7 mg/kg (0.032 mmole/kg),< 0.05
same,"Proportion of survivors, treated animals","[4]; 7 mg/kg (0.032 mmole/kg), control 2/10",7/10
same,Fisher exact probability,[4]; 23 mg/kg (0.1 mmole/kg),< 0.001
same,"Proportion of survivors, treated animals","[4]; 23 mg/kg (0.1 mmole/kg), control 1/10",9/10
"CN1Cc2ccc(Cl)cc2CCC1=O [J, 7-chloro-2-methyl-1,2,4,5-tetrahydro-3H-2-benzazepin-3-one]",Fisher exact probability,[4]; 21 mg/kg (0.1 mmole/kg),< 0.01
same,"Proportion of survivors, treated animals","[4]; 21 mg/kg (0.1 mmole/kg), control 1/10",7/10
same,Fisher exact probability,[4]; 66 mg/kg (0.32 mmole/kg),< 0.005
same,"Proportion of survivors, treated animals","[4]; 66 mg/kg (0.32 mmole/kg), control 1/10",8/10
"CN1Cc2cc(Cl)ccc2CCC1=O [K, 8-chloro-2-methyl-1,2,4,5-tetrahydro-3H-2-benzazepin-3-one]",Fisher exact probability,[4]; 21 mg/kg (0.12 mmole/kg as printed),< 0.05
same,"Proportion of survivors, treated animals","[4]; 21 mg/kg (0.12 mmole/kg as printed), control 1/10",6/10
same,Fisher exact probability,[4]; 66 mg/kg (0.37 mmole/kg as printed),< 0.05
same,"Proportion of survivors, treated animals","[4]; 66 mg/kg (0.37 mmole/kg as printed), control 1/10",6/10
"CCCCCN1Cc2cc(C)ccc2CCC1=O [L, 8-methyl-2-pentyl-1,2,4,5-tetrahydro-3H-2-benzazepin-3-one]",Fisher exact probability,[4]; 78 mg/kg (0.32 mmole/kg),< 0.05
same,"Proportion of survivors, treated animals","[4]; 78 mg/kg (0.32 mmole/kg), control 0/5",6/10
"NC(=O)CN1CCCC1=O [piracetam, reference compound]",Stimulus initiating the avoidance reaction 24 hours after the first stimulation,"[3]; 1.5 mg/kg, control (0 mg/kg) 153",120 g
same,Stimulus initiating the avoidance reaction 24 hours after the first stimulation,"[3]; 3.5 mg/kg, control (0 mg/kg) 153",90 g
same,minimal effective dose,[3],3.5 mg/kg and 25 µmol/kg
same,retention in active avoidance test,"[3]; tested 24 hours later, versus control animals, dose not given in sentence",significant degree of retention
same,Fisher exact probability,[4]; 45 mg/kg (0.32 mmole/kg),not significant
same,"Proportion of survivors, treated animals","[4]; 45 mg/kg (0.32 mmole/kg), control 0/10",1/10
same,Fisher exact probability,[4]; 142 mg/kg (1 mmole/kg),not significant
same,"Proportion of survivors, treated animals","[4]; 142 mg/kg (1 mmole/kg), control 2/10",4/10
same,Fisher exact probability,[4]; 454 mg/kg (3.2 mmole/kg),< 0.005
same,"Proportion of survivors, treated animals","[4]; 454 mg/kg (3.2 mmole/kg), control 1/10",8/10
same,spinal fixation (animals with fixation),spinal fixation time [6],four animals out of nine
